In patent US12344584B2, “KCNQ potentiators” (Eli Lilly and Company, priority 2019, dated 2025):
pEC50: −log10 of the molar value.

Target: T1, hKv7.2 and hKv7.3 (Kv7.2/7.3) (Homo sapiens, UniProt O43525+O43526)
T1 construct: host or cells: HEK293
Test: Modulation of Kv7.2/7.3 conductance, automated electrophysiology (IonWorks Barracuda, population patch clamp) in HEK293 cells
Type: cell-based
Design: Voltage Shift ([…]V0.5), Mean: unit not given here
Procedure: Modulation of Kv7.2/7.3 Conductance by Kv7 Potentiators in a Mammalian Expression System
The potency and efficacy of Kv7 potentiators is assessed by automated electrophysiology on the IonWorks Barracuda (Molecular Devices) platform using the population patch clamp mode of the instrument.
Cell Culture: HEK293 cells stably expressing hKv7.2 (under tetracycline induction) and hKv7.3 (Catalog #CT6147, Charles River) are used for these studies. Cells are maintained in a Dulbecco's modified Eagle's medium/nutrient mixture Ham's F-12 (Sigma-Aldrich) supplemented with 5% tetracycline-screened fetal bovine serum (Sigma-Aldrich), 15 mM HEPES, 500 μg/mL G418, 100 U/mL penicillin, 100 μg/mL streptomycin, […] L-glutamine, 100 μg/mL zeocin, and 5 μg/mL blasticidin. Expression of hKv7.2 is induced by addition of 1 μg/mL doxycycline 24 h prior to recordings.
Cells are cultured in Corning T-150 flasks to a confluence of 85%-95%. At the start of an experiment, cells are washed once with D-PBS without calcium and magnesium and then dissociated by incubating in 3 ml of 0.25% trypsin for 8 min at 37° C. Cells ware resuspended in media, triturated gently, and centrifuged for 4 min at 1,000 rpm. Cells are resuspended in external solution to a final concentration of 2.5-3.5M cells/mL.
Solutions: External solution w is composed of (in mM): 140 NaCl, 5 KCl, 2 CaCl2, 1 MgCl2, 10 HEPES, 10 Glucose, pH 7.4. Internal solution is composed of (in mM): 90 K-gluconate, 40 KCl, 3.2 EGTA, 3.2 MgCl2, 5 HEPES, pH 7.25. The membrane perforating agent amphotericin B is prepared daily as a 27 mg/mL stock solution in DMSO and then added to the internal solution to a final concentration of 0.1 mg/mL. Test article dilutions are prepared in 384-well plates from 10 mM DMSO stock solutions and diluted using acoustic dispensing (Labcyte ECHO®), such that final DMSO concentrations are 0.1%.
Electrophysiological Recordings: Resuspended cells are placed on the IONWORKS® BARRACUDA™ (IWB) instrument, external solution is added to a 384-well patch plate, and a hole test is performed to determine blocked wells and offset voltages. Cells are then added to the patch plate (9 μL per well) by the instrument. Two seal tests are performed prior to introducing the perforating agent amphotericin in the internal solution and allowing approximately 8 min to obtain electrical access, which is verified by a third seal test. The command voltage protocol consists of a family of 1 sec voltages steps from −80 mV to +40 mV from a holding potential of −80 mV and is applied prior to (baseline) and 6 min after test article addition.
Data Analysis: Data are acquired and leak subtracted using IWB software. Current amplitudes during the last 10 msec of each voltage step are averaged and exported. Further analysis is performed using Microsoft Excel and GraphPad Prism. Current amplitude is converted to conductance (G) by the following formula: G=I/(V−Ek) where I=current, V=step potential, Ek=potassium reversal potential (−84 mV). Conductance in the presence of test article is normalized to the baseline conductance at +40 mV for the same well. Conductance-voltage (G−V) curves are fitted with the Boltzmann equation y=Bottom+(Top−Bottom)/(1+EXP((Vm−V0.5/k)).
Fitting a 4-parameter logistic equation to the data may be used to determine the potency (EC50) and efficacy (maximal shift) for each test compound.

[1] = 4-parameter logistic fit of voltage shift data

- Voltage Shift ([…]V0.5), Mean (0.0005 μM): 2.6
- Voltage Shift ([…]V0.5), Mean (0.0015 μM): 2.0
- Voltage Shift ([…]V0.5), Mean (0.005 μM): 3.0
- Voltage Shift ([…]V0.5), Mean (0.01 μM): 1.6
- Voltage Shift ([…]V0.5), Mean (0.04 μM): 1.3
- Voltage Shift ([…]V0.5), Mean (0.12 μM): 0.0
- Voltage Shift ([…]V0.5), Mean (0.37 μM): −3.5
- Voltage Shift ([…]V0.5), Mean (1.11 μM): −13.2
- Voltage Shift ([…]V0.5), Mean (3.33 μM): −28.0
- Voltage Shift ([…]V0.5), Mean (10 μM, difference from control in voltage at half-maximal conductance): −38.0
- Maximal Shift (efficacy) [1]: −44
- Slope [1]: 1.2
- pEC50 (4-parameter logistic fit of voltage shift data, read-out: EC50 (potency of V0.5 shift)): 5.70
SMILES: CC(C)(C)[C@H](O)CNC(=O)NCc1ccnc(OCC(F)(F)F)c1 [Example 1, 1-[(2S)-2-hydroxy-3,3-dimethyl-butyl]-3-[[2-(2,2,2-trifluoroethoxy)-4-pyridyl]methyl]urea]
